Measurements taken from patent US9168286B2, “Methods and compositions for use in treatment of patients with autoantibody positive disease” (Human Genome Sciences, Inc., priority 2005, dated 2015).

Columns and labels:
subjects with SLE [1] = assay: Phase 2 clinical trial of belimumab in SLE with extension and continuation trial: biologic markers (B cells, autoantibodies, Ig isotypes, C3/C4); assay type: in vivo, human; parameters: median percent change in CD20+ B cells (reduction) / median percent change in plasmacytoid B cells (CD20+/CD138+) (reduction) / median percent change in activated B cells (CD20+/CD69+) (reduction) / percent of subjects with significant anti-dsDNA reduction / IgE reduction: concentration or dose not given beside the values; settings: for percent of subjects with significant anti-dsDNA reduction: non-responders; for IgE reduction: subjects with elevated IgE (>114 KU/L) at baseline; for median percent IgG reduction: weeks 52-128
Protocol: Of the patients who completed 52 weeks of treatment in the randomized, double-blind, placebo-controlled Phase 2 trial (see example 1), 96% (351/364) elected to enter the 24-week extension phase of the trial, and 92% (321/351) of those who entered completed it.
Serum autoantibodies, Ig isotypes and complement (C3, C4) were measured at 1-3 month intervals. In addition, the population with baseline serologic activity (ANA ≧1:80 or anti-dsDNA Ab ≧30IU; 72% of the original cohort herein called seropositive patients or seropositive subjects) was evaluated for SS, physician global assessment (PGA 0-3 units), BILAG, […] Functional Index (SFI) and autoantibody status at 1-3 month intervals.

subjects with RA [2] = assay: Phase 2 clinical trial of belimumab in rheumatoid arthritis: ACR20 response; assay type: in vivo, human
Description: (§1) ACR20 response increased to approximately 40% at Week 48.

subjects with RA [3] = assay: Phase 2 clinical trial of belimumab in rheumatoid arthritis: safety; assay type: in vivo, human
Description: as §1

[4] = Phase 2 clinical trial of belimumab in rheumatoid arthritis: serum concentrations; settings: human, in vivo
Description: as §1

subjects with SLE [5] = settings: human, in vivo
Protocol: (§2) 449 subjects with SLE by ACR criteria (Tan et al., Arthritis Rheum. 25:1271-7, (1982); and Hochberg et al., Arthritis Rheum. 40:1725, (1997)), with a history of measurable autoantibodies and SELENA SLEDAI score ≧4 at screening were dosed.
(§3) Subjects who completed the 52-week treatment period were given the option to continue the study for a 24-week extension period. […] B-cells were analyzed every 1-2 months by 4-color FACS (CD19, CD20, CD27, CD69, CD38, CD138 and CD45). Serum autoantibody, including anti-dsDNA Ab, Ig isotypes, total protein, and albumin levels were obtained at the same visits. The likelihood ratio chi-squared, Wilcoxon test or t-test was used to analyze the changes in the biological markers.

subjects with SLE [6] = assay: Phase 2 clinical trial of belimumab in SLE: safety
Protocol: as §2, §3

[7] = week 52, all treatment groups combined, p<0.002
[8] = week 76, all treatment groups combined

Substance: belimumab: an antibody that neutralizes Neutrokine-alpha protein
- increase of C3 (subjects with SLE [1]; low baseline C3, week 96): 15%
- increase of C3 (subjects with SLE [1]; low baseline C3, week 128): 18%
- increase of C4 (subjects with SLE [1]; low baseline C4 (n=180), week 52, p=0.0126, placebo 14%): 33%
- increase of C4 (subjects with SLE [1]; low baseline C4, week 76): 46%
- increase of C4 (subjects with SLE [1]; low baseline C4, week 96): 57%
- increase of C4 (subjects with SLE [1]; low baseline C4, week 128): 67%
- Anti-Sm reverted from positive at baseline to negative (subjects with SLE [1]; n=85, weeks 52-128, placebo week 52=5%): 26-36%
- subjects with hypergammaglobulinemia (>1618 mg/dL) at baseline normalized (subjects with SLE [1]; n=125, week 52, placebo week 52=17%): 45%
- subjects with hypergammaglobulinemia (>1618 mg/dL) at baseline normalized (subjects with SLE [1]; n=125, week 128): 57%
- RNP reverted from positive at baseline to negative (subjects with SLE [1]; n=205, weeks 52-128, placebo week 52=2%): 9-27%
- percent of subjects with significant anti-dsDNA reduction (subjects with SLE [1]; week 52): 19%
- percent of subjects with significant anti-dsDNA reduction (subjects with SLE [1]; week 128): 32%
- C4 complement levels, median percent change from baseline (subjects with SLE [1]; patients with low C4 at baseline, each measurement during weeks 4-52, p≦0.01): significant increase
- anti-dsDNA titer, median percent change from baseline (subjects with SLE [1]; subjects with anti-dsDNA ≧30 IU/ml at entry, as early as week 4, through week 52, vs placebo): significant reduction
- IgE reduction (subjects with SLE [1]; week 52): 44%
- IgE reduction (subjects with SLE [1]; week 128): 57%
- median percent IgG reduction (subjects with SLE [1]; subjects with elevated IgG at baseline): 14-18%
- median percent IgG reduction (subjects with SLE [1]; subjects with normal IgG at baseline): 7-8%
- cell counts of CD19+, naïve, activated and plasmacytoid B cells, median percent change from baseline (subjects with SLE [1]; week 24, all treated combined vs placebo, p<0.0001): significant reduction
- CD19+ B cells and naïve B cells (CD20+/CD27−) (subjects with SLE [1]; week 52): significantly reduced
- memory cell populations (subjects with SLE [1]; week 52): preserved
- median percent change in CD20+ B cells (reduction) (subjects with SLE [1]; [7]): 54%
- median percent change in plasmacytoid B cells (CD20+/CD138+) (reduction) (subjects with SLE [1]; [7]): 62%
- reduction of anti-dsDNA Ab (subjects with SLE [1]; week 52, baseline positive, p<0.002, placebo 9%): 30%
- median percent change in activated B cells (CD20+/CD69+) (reduction) (subjects with SLE [1]; week 52, p<0.002): 70%
- median reduction of serum IgE (subjects with SLE [1]; week 52, placebo 0%): 34%
- median reduction of serum IgA (subjects with SLE [1]; week 52, placebo 3%): 14%
- median reduction of serum IgM (subjects with SLE [1]; week 52, placebo 5%): 29%
- subjects with significant anti-dsDNA reduction (≧50% reduction or become negative) (subjects with SLE [1]; week 52, placebo 17%): 30%
- median reduction of serum IgG (subjects with SLE [1]; week 52, placebo up 3%): 10%
- increase of plasma cells (CD20−/CD138+) over baseline (subjects with SLE [1]; week 52, placebo/standard of care 30.6%, p=0.02): 72.5%
- additional anti-dsDNA+ subjects converted to negative (subjects with SLE [1]; week 76): 3 subjects
- median reduction of serum IgA (subjects with SLE [1]; week 76): 15%
- median reduction of serum IgE (subjects with SLE [1]; week 76): 35%
- median reduction of serum IgG (subjects with SLE [1]; week 76): 12%
- median reduction of serum IgM (subjects with SLE [1]; week 76): 34%
- reduction of anti-dsDNA Ab (subjects with SLE [1]; week 76): 28%
- median percent change in CD20+ B cells (reduction) (subjects with SLE [1]; [8]): 61%
- median percent change in activated B cells (CD20+/CD69+) (reduction) (subjects with SLE [1]; [8]): 84%
- median percent change in plasmacytoid B cells (CD20+/CD138+) (reduction) (subjects with SLE [1]; [8]): 60%
- median reduction of serum IgA (subjects with SLE [1]; week 104): 14%
- median reduction of serum IgE (subjects with SLE [1]; week 104): 37%
- median reduction of serum IgG (subjects with SLE [1]; week 104): 10%
- median reduction of serum IgM (subjects with SLE [1]; week 104): 35%
- median reduction of serum IgA (subjects with SLE [1]; week 128): 14%
- median reduction of serum IgE (subjects with SLE [1]; week 128): 41%
- median reduction of serum IgG (subjects with SLE [1]; week 128): 9%
- median reduction of serum IgM (subjects with SLE [1]; week 128): 40%
- subjects with significant anti-dsDNA reduction (≧50% reduction or become negative) (subjects with SLE [1]; week 128): 47%
- ACR20 response (subjects with RA [2]; 1 mg/kg treatment group vs placebo, 24 weeks, p=0.0097): statistically superior
- dose-response relationship for efficacy, safety, biomarker effects (subjects with RA [2]; 1, 4, 10 mg/kg): not apparent
- ACR20 response (subjects with RA [2]; Week 48 (extension period)): approximately 40%
- ACR20 response (subjects with RA [2]; all active treatment groups combined vs placebo, 24 weeks, p=0.0213): statistically superior
- symptoms associated with rheumatoid arthritis, by subgroup (subjects with RA [2]; patients with DAS28 >5.1, no previous anti-TNF therapy, and/or rheumatoid factor, IV days 0, 14, 28 then every four weeks until week 24): more likely to ameliorate symptoms associated with rheumatoid arthritis
- ACR20 responses in subgroups (subjects with RA [2]; subjects with autoantibody positive disease (RF or anti-CCP) or positive for CRP at baseline): improved ACR20 responses
- tolerability (subjects with RA [3]; 1, 4, 10 mg/kg, 24 weeks): well tolerated at all doses
- tolerability (subjects with RA [3]; continued treatment in the extension period): well tolerated
- Serum concentrations [4]: within the range expected based on the Phase 1 data
- effect of concomitant medications (methotrexate, leflunomide or hydroxychloroquine) on belimumab exposures [4]: no significant effect
- safety, including adverse events (AE), AE severity, infections or lab toxicity (subjects with SLE [5]): No clinically significant differences
- Immunogenicity to belimumab, number of subjects (subjects with SLE [6]; 1 mg/kg): 1 subject
- Infusion reactions (subjects with SLE [6]; human, in vivo): rare, with only 1 severe event reported
- tolerability (subjects with SLE [6]; human, in vivo): well tolerated
- subjects with pleurisy (subjects with SLE [6]; placebo 8%, p<0.05): 3.3%
